Source: US9670226B2, “Sesquiterpenoids” (National Institute of Biological Sciences, Beijing, priority 2014, dated 2017)

Columns and labels:
phosphorylation of IκBα = test: TNF induced IκBα phosphorylation in different cell lines; format: cell-based
[1] = system: IKKβ C46 containing peptide (#1, #2; amino acids 41-53); test: Peptide binding by MALDI-TOF; design: species or system human
Procedure: (§1) This peptide was tested for binding to 223 and probe by using MALDI-TOF (Matrix-Assisted […] Desorption/Ionization Time of Flight). m/z values at 2,047.978 and 2,479.259 were well matched with the calculated weights of #1+223 and #1+Probe, respectively. […] As expected, the peptide #2 containing amino acids 41-53 of human IKKβ interacted with both 223 and probe.

[2] = target: T1, IKKβ C46 containing peptide (#1, #2; amino acids 41-53) (Homo sapiens, UniProt O14920); test: Peptide binding by MALDI-TOF
T1 construct: encompasses amino acids 41-53 of human IKKβ; made in house; host or cells: chemical peptide synthesis
Procedure: as §1

glioblastoma T98G cells = test: Cancer cell survival; format: cell-based, human; details: different concentration
IKKβ = target: T2, IKKβ (Homo sapiens, UniProt O14920); test: IKKβ kinase inhibition; format: biochemical; details: read-out: IC50 against IKKβ
T2 sequence (O14920 1-756): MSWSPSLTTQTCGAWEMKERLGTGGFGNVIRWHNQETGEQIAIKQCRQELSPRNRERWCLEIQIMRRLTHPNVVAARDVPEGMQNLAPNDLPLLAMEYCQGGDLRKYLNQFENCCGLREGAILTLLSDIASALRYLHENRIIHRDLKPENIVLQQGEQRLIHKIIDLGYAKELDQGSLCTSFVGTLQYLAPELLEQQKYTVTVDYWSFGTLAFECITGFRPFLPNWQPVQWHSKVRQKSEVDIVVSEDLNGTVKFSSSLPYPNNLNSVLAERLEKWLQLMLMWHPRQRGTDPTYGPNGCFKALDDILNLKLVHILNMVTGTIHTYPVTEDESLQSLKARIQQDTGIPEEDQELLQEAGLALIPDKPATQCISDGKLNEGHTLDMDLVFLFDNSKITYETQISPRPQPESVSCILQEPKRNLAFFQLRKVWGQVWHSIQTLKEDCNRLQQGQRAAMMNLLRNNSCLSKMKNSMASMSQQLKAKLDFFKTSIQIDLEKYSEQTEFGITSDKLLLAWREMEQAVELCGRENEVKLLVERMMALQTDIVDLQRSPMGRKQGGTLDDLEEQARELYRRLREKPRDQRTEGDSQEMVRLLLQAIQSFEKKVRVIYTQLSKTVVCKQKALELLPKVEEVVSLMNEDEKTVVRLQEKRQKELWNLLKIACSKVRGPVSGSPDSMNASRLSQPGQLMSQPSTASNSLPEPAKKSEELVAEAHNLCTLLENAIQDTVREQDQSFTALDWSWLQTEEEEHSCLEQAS
Excerpt: To further explore how (+)-ainsliadimer A inactivates IKKα/β, we conducted the molecular dynamics (MD) simulations using the first crystal structure of IKKβ^29 to sample the conformational states of IKKβ upon 223 binding. […] We next asked whether 223 could directly affect IKKβ kinase activity.

[3] = system: Phosphorylation of IKKα/β; test: TRAF6-induced IKKα/β phosphorylation in S100 cell lysates from 293T cells; format: biochemical; details: S100 cell lysates from 293T cells with recombinant TRAF6
Procedure: TNF receptor-associated factors (TRAFs) are important intermediates in NF-κB signaling pathway. For example, TRAF2 and TRAF5 regulate TNF-α receptor triggered IKK activation, whereas TRAF6 is required for IL-1 induced IKK activation^2. The latter pathway can be reconstituted in cell-free extracts by adding recombinant TRAF6 protein. Phosphorylation of IKKα/β was detected in S100 cell lysates from 293T cells when incubated with recombinant TRAF6.

IKKγ/NEMO = IKKγ/NEMO (Homo sapiens, UniProt Q9Y6K9); test: Association with other NF-κB pathway proteins; format: binding
TAK1 = TAK1 (Homo sapiens, UniProt O43318); test: Association with other NF-κB pathway proteins; format: binding
[4] = system: IKKβ C215 containing peptides #3 and #4; test: Peptide binding by MALDI-TOF; design: species or system human
IKKα Cys46 into serine = target: T3, IKKα Cys46 into serine (Homo sapiens, UniProt O15111, C46S); test: Binding to Cys46-to-serine mutant
T3 construct: Flag; made in house

[5] = system: NIK-mediated production of p52 (IKKα activity); test: NIK-mediated non-canonical NF-κB activation (processing of p100 to p52); format: cell-based; details: ectopic expression of NIK
Excerpt: Since phosphorylation of p100 by IKKα is critical for NIK-mediated activation of the non-canonical NF-κB, we further investigated the effect of 223 on non-canonical NF-κB activation.

C46A-IKKβ = C46A-IKKβ (Homo sapiens, UniProt O14920, C46A); test: In vitro kinase assay with Flag-IκBα substrate
IFR3 phosphorylation = test: LPS-induced type I interferon (IFN) responses; format: cell-based
[6] = system: peptides 1A, 2A, 1S and 2S (cysteine 46 replaced by alanine or serine); test: Peptide binding by MALDI-TOF; design: species or system human
[7] = system: IKKβ, other eight cysteine-to-alanine mutants; test: Binding to IKKβ cysteine mutants
Excerpt: In order to evaluate which of them is critical for the binding of 223, we individually mutated these nine cysteine residues of IKKβ into alanines.

[8] = system: cervical cancer HeLa cells; test: Cancer cell survival; format: cell-based, human
TAB1 = TAB1 (Homo sapiens, UniProt Q15750); test: Association with other NF-κB pathway proteins; format: binding
WT-IKKβ = WT-IKKβ (Homo sapiens, UniProt O14920); test: In vitro kinase assay with Flag-IκBα substrate
[9] = system: BGC-823 human gastric adenocarcinoma xenograft; test: BGC-823 xenograft in nude mice; format: in vivo; details: 223 25 mg/kg, qdx8
Procedure: Next we further examined anti-tumor effect of 223 in vivo. Nude mice bearing a BGC-823 human gastric adenocarcinoma xenograft were treated with vehicle or 223 (25 mg/kg, qdx8) or 10-hydroxycamptothecin (HCPT), a widely used anti-tumor drug (30 mg/kg, q6dx2).

IKKγ/NEMO, sequence (Q9Y6K9 whole entry): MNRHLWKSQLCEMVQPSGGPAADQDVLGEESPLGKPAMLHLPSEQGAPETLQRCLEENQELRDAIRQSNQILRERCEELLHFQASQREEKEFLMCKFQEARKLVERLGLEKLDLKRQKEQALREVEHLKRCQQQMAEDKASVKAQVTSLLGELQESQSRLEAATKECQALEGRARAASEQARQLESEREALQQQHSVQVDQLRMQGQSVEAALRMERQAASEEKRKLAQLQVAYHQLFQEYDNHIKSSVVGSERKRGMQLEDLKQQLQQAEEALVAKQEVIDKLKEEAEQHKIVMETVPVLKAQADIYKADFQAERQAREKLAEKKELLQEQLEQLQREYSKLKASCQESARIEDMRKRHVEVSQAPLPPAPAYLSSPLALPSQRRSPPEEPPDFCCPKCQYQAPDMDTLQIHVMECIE
T3 sequence (O15111 whole entry C46S): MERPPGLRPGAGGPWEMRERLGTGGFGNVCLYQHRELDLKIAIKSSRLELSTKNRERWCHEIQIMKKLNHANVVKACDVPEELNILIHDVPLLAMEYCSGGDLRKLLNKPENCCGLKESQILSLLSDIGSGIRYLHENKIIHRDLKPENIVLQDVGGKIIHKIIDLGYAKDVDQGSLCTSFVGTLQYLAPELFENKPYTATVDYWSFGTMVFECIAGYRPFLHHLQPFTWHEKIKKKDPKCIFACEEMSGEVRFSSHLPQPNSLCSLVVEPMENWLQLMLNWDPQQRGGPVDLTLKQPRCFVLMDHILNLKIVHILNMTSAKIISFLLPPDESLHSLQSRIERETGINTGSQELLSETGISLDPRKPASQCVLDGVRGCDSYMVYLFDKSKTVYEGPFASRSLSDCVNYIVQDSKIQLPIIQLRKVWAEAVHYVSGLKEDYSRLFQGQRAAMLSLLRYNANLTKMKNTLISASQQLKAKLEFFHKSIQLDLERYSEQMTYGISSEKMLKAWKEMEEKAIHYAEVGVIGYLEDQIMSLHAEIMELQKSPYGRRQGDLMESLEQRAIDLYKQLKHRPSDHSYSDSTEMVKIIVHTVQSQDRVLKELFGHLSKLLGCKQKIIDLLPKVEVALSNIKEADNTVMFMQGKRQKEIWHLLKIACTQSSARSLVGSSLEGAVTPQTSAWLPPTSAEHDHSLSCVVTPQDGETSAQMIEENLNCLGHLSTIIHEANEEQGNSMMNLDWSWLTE
TAK1, sequence (O43318 whole entry): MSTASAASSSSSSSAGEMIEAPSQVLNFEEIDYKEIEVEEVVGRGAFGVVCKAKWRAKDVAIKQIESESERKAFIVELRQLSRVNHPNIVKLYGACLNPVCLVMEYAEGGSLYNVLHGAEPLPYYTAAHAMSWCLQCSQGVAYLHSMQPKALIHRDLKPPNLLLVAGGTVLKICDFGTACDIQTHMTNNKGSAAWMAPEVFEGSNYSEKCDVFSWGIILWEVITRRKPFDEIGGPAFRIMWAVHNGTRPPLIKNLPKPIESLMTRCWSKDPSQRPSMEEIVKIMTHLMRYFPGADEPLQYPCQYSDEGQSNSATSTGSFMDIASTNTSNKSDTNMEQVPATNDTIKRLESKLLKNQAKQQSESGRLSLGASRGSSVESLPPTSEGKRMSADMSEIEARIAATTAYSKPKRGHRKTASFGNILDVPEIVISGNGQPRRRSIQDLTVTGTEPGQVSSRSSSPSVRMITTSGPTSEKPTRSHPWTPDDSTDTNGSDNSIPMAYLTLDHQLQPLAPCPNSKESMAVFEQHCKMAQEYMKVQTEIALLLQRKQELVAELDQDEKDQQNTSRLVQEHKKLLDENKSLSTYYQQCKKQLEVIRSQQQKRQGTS
C46A-IKKβ, sequence (O14920 whole entry C46A): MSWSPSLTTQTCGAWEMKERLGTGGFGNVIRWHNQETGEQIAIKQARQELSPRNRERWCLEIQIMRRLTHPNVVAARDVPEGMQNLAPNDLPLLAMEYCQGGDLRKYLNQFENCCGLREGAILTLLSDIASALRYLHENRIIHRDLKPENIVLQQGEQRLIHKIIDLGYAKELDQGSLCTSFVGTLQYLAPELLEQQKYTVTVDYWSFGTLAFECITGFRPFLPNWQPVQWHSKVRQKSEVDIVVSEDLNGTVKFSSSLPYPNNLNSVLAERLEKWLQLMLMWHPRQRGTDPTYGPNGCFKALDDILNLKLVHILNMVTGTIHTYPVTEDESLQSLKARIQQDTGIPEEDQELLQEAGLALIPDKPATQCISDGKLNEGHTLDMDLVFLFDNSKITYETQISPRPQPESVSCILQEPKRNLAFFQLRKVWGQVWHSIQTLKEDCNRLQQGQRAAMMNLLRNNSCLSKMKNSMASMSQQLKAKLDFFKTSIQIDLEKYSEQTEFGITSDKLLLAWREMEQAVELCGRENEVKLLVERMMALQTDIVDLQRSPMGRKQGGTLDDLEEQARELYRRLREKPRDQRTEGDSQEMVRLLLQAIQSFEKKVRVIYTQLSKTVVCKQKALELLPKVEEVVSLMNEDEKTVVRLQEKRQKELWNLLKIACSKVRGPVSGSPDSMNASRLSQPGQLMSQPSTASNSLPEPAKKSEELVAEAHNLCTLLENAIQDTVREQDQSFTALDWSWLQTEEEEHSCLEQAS
TAB1, sequence (Q15750 whole entry, species assumed): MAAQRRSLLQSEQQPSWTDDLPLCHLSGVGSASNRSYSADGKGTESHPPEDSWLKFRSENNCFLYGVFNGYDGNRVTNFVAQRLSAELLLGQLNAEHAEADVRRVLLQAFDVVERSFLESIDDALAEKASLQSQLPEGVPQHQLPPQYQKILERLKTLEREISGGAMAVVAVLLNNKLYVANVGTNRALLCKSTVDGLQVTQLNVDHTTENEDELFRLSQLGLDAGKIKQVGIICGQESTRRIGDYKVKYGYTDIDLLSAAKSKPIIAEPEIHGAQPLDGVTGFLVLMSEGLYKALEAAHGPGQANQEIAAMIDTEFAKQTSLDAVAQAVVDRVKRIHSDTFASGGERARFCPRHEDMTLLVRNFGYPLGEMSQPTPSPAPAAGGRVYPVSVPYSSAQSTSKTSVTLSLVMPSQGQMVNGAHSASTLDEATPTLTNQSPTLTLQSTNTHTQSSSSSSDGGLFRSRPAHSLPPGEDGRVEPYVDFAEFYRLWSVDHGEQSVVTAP

SMILES: C=C1C(=O)O[C@@H]2[C@@H]3[C@@H](C[C@@]4(O)[C@]3(O)CC[C@]43C(=O)C[C@H]4C(=C)CC[C@H]5C(=C)C(=O)O[C@@H]5[C@H]43)C(=C)CC[C@@H]12 [Compound 223, (+)-Ainsliadimer A]
- TNF induced phosphorylation of IκBα (phosphorylation of IκBα): significantly inhibited
- interaction with peptide #2 [1]: interacted
- binding to peptide #1 [2]: could bind
- cell death (glioblastoma T98G cells): Dramatic cell death
- IC50 (IKKβ): 76 nM
- TRAF6-induced phosphorylation of IKKα/β [3]: completely abolished
- association with IKKγ/NEMO (IKKγ/NEMO): no association
- association with TAK1 (TAK1): no association
- association with peptides #3 and #4 [4]: no association
- interaction with IKKα Cys46 to serine mutant (IKKα Cys46 into serine): abolished
- NIK-mediated production of p52 [5]: prevented
- phosphorylation of IκBα triggered by C46A-IKKβ (C46A-IKKβ): resistant
- effect on LPS-induced type I interferon (IFN) responses (IFR3 phosphorylation) (IFR3 phosphorylation): no effect
- binding to peptides 1A, 2A, 1S and 2S [6]: lost the ability to bind
- binding of other eight IKKβ cysteine mutants [7]: retained high affinity binding
- inhibition of cell survival (cell viability by ATP levels) ([8]; 48 hours): dose response inhibition
- cell death ([8]; different concentration): Dramatic cell death
- association with TAB1 (TAB1): no association
- WT-IKKβ-induced phosphorylation of IκBα (WT-IKKβ): significantly suppressed
- anti-tumor effect relative to HCPT (30 mg/kg, q6dx2) [9]: comparable
- side effects and body weight during administration ([9]; HCPT 30 mg/kg, q6dx2): did not display any discernible side effects or significant changes in body weight
- mice with significant tumor remission ([9]; after 12 days): eight of eight
- xenograft tumor response ([9]; after 12 days, compared to vehicle): Significant xenograft tumor remission
